The record followed here is the supplement of paper PMC10307832.

Common to all, as to assay: relative viability (nuclei count vs DMSO), 5 days (fraction); higher = more cells survive
Compound in test [1]: CC(C)C[C@H](NC(=O)[C@H](CCc1ccccc1)NC(=O)CN1CCOCC1)C(=O)N[C@@H](Cc1ccccc1)C(=O)N[C@@H](CC(C)C)C(=O)[C@@]1(C)CO1 [Carfilzomib] + CC(=O)c1c(C)c2cnc(Nc3ccc(N4CCNCC4)cn3)nc2n(C2CCCC2)c1=O [Palbociclib] (partner 0.5 µM)
In outline: (§1)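 The day after seeding in 1536-well plates, lung cancer cell lines were treated by pin tool with a single drug, or with a fixed anchor-drug dose together with five library-drug doses (not always all listed) in √10 steps. After 5 days, a combined fix-and-stain solution (final 0.05% Triton X-100, 1% formaldehyde, 1 ug/ml Hoechst) was added. Nuclei counted on 4× images gave relative viability as treated counts over vehicle counts, reported as the median of duplicate plates.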

Compound in test [2]: CC(C)C[C@H](NC(=O)[C@H](CCc1ccccc1)NC(=O)CN1CCOCC1)C(=O)N[C@@H](Cc1ccccc1)C(=O)N[C@@H](CC(C)C)C(=O)[C@@]1(C)CO1 [Carfilzomib] + CS(=O)(=O)N1CCN(Cc2cc3nc(-c4cccc5[nH]ncc45)nc(N4CCOCC4)c3s2)CC1 [Pictilisib] (partner 1 µM)
In outline:
as §1

Compound in test [3]: CC(C)C[C@H](NC(=O)[C@H](CCc1ccccc1)NC(=O)CN1CCOCC1)C(=O)N[C@@H](Cc1ccccc1)C(=O)N[C@@H](CC(C)C)C(=O)[C@@]1(C)CO1 [Carfilzomib] + Cc1cc(Nc2cc(N3CCN(C)CC3)nc(Sc3ccc(NC(=O)C4CC4)cc3)n2)n[nH]1 [Tozasertib] (partner 0.1 µM)
In outline: as §1

Compound in test [4]: C[C@@H](Oc1cc(-c2cnn(C3CCNCC3)c2)cnc1N)c1c(Cl)ccc(F)c1Cl [Crizotinib] + CC(=O)Nc1cccc(-n2c(=O)n(C3CC3)c(=O)c3c(Nc4ccc(I)cc4F)n(C)c(=O)c(C)c32)c1 [Trametinib] (partner 0.02 µM)
In outline:
as §1

For the cell line NCI-H661, the relative viability in test [1] (first compound 0.001 µM) is 0.423; in test [1] (first compound 0.003162 µM), 0.414; in test [1] (first compound 0.01 µM), 0.472; in test [1] (first compound 0.03162 µM), 0.398; in test [1] (first compound 0.1 µM), 0.318; in test [2] (first compound 0.001 µM), 0.391. The relative viability was 0.458 in test [2] (first compound 0.003162 µM); 0.457 in test [2] (first compound 0.01 µM); 0.483 in test [2] (first compound 0.03162 µM); 0.238 in test [2] (first compound 0.1 µM); 0.367 in test [3] (first compound 0.001 µM); 0.313 in test [3] (first compound 0.003162 µM). Besides, the relative viability in test [3] (first compound 0.01 µM) was 0.364; in test [3] (first compound 0.03162 µM) it was 0.373; in test [3] (first compound 0.1 µM), 0.255; in test [4] (first compound 0.01 µM), 0.536; in test [4] (first compound 0.03162 µM) it was 0.563; in test [4] (first compound 0.1 µM), 0.536. Besides, the relative viability in test [4] (first compound 0.3162 µM) turned out to be 0.61; in test [4] (first compound 1 µM) it was 0.549.
As to NCI-H1993, the relative viability in test [1] (first compound 0.001 µM) worked out at 0.667; in test [1] (first compound 0.003162 µM), 0.658; in test [1] (first compound 0.01 µM), 0.641; in test [1] (first compound 0.03162 µM), 0.723; in test [1] (first compound 0.1 µM) it was 0.383; in test [2] (first compound 0.001 µM), 0.756. For the same cell line, the relative viability was 0.771 in test [2] (first compound 0.003162 µM); 0.717 in test [2] (first compound 0.01 µM); 0.648 in test [2] (first compound 0.03162 µM); 0.61 in test [2] (first compound 0.1 µM); 0.563 in test [3] (first compound 0.001 µM); 0.571 in test [3] (first compound 0.003162 µM). Moreover, the relative viability worked out at 0.59 in test [3] (first compound 0.01 µM); 0.597 in test [3] (first compound 0.03162 µM); 0.423 in test [3] (first compound 0.1 µM); 0.631 in test [4] (first compound 0.01 µM); 0.454 in test [4] (first compound 0.03162 µM); 0.506 in test [4] (first compound 0.1 µM). The relative viability came to 1.07 in test [4] (first compound 0.3162 µM) and 0.46 in test [4] (first compound 1 µM).
For NCI-H23, the relative viability in test [1] (first compound 0.001 µM) worked out at 0.508; in test [1] (first compound 0.003162 µM), 0.484; in test [1] (first compound 0.01 µM), 0.429; in test [1] (first compound 0.03162 µM), 0.212; in test [1] (first compound 0.1 µM), 0.116; in test [2] (first compound 0.001 µM) it was 0.469. Further, the relative viability in test [2] (first compound 0.003162 µM) was determined as 0.551; in test [2] (first compound 0.01 µM), 0.436; in test [2] (first compound 0.03162 µM) it was 0.159; in test [2] (first compound 0.1 µM) it was 0.122; in test [3] (first compound 0.001 µM), 0.382; in test [3] (first compound 0.003162 µM) it was 0.428. In addition, the relative viability is 0.376 in test [3] (first compound 0.01 µM); 0.122 in test [3] (first compound 0.03162 µM); 0.13 in test [3] (first compound 0.1 µM); 0.341 in test [4] (first compound 0.01 µM); 0.367 in test [4] (first compound 0.03162 µM); 0.329 in test [4] (first compound 0.1 µM). Besides, in test [4] (first compound 1 µM), the relative viability turned out to be 0.393.
Take LCLC-97TM1: the relative viability in test [1] (first compound 0.001 µM) is 0.217; in test [1] (first compound 0.003162 µM), 0.214; in test [1] (first compound 0.01 µM), 0.24; in test [1] (first compound 0.03162 µM), 0.0666; in test [1] (first compound 0.1 µM), 0.0679; in test [2] (first compound 0.001 µM) it was 0.214. Moreover, the relative viability worked out at 0.223 in test [2] (first compound 0.003162 µM); 0.122 in test [2] (first compound 0.01 µM); 0.114 in test [2] (first compound 0.03162 µM); 0.116 in test [2] (first compound 0.1 µM); 0.25 in test [3] (first compound 0.001 µM); 0.263 in test [3] (first compound 0.003162 µM). In addition, the relative viability in test [3] (first compound 0.01 µM) was 0.215; in test [3] (first compound 0.03162 µM) it was 0.205; in test [3] (first compound 0.1 µM), 0.107; in test [4] (first compound 0.01 µM), 0.189; in test [4] (first compound 0.03162 µM), 0.173; in test [4] (first compound 0.1 µM), 0.209. In addition, the relative viability in test [4] (first compound 0.3162 µM) is 0.173; in test [4] (first compound 1 µM), 0.196.
For NCI-H1915, the relative viability in test [1] (first compound 0.001 µM) came out at 0.479; in test [1] (first compound 0.003162 µM), 0.513; in test [1] (first compound 0.01 µM), 0.521; in test [1] (first compound 0.03162 µM), 0.514; in test [1] (first compound 0.1 µM), 0.0575; in test [2] (first compound 0.001 µM), 0.973. Further, the relative viability in test [2] (first compound 0.003162 µM) amounted to 1; in test [2] (first compound 0.01 µM) it was 0.8; in test [2] (first compound 0.03162 µM), 0.572; in test [2] (first compound 0.1 µM) it was 0.123; in test [3] (first compound 0.001 µM), 0.422; in test [3] (first compound 0.003162 µM), 0.458. The relative viability in test [3] (first compound 0.01 µM) stood at 0.465; in test [3] (first compound 0.03162 µM), 0.229; in test [3] (first compound 0.1 µM), 0.0764; in test [4] (first compound 0.01 µM), 0.286; in test [4] (first compound 0.03162 µM), 0.31; in test [4] (first compound 0.1 µM), 0.32. Also, the relative viability in test [4] (first compound 0.3162 µM) is 0.293; in test [4] (first compound 1 µM), 0.313.
LOU-NH91: the relative viability turned out to be 0.492 in test [1] (first compound 0.001 µM); 0.543 in test [1] (first compound 0.003162 µM); 0.514 in test [1] (first compound 0.01 µM); 0.363 in test [1] (first compound 0.03162 µM); 0.314 in test [1] (first compound 0.1 µM); 0.51 in test [2] (first compound 0.001 µM). Further, the relative viability in test [2] (first compound 0.003162 µM) came out at 0.525; in test [2] (first compound 0.01 µM) it was 0.477; in test [2] (first compound 0.03162 µM), 0.312; in test [2] (first compound 0.1 µM), 0.255; in test [3] (first compound 0.001 µM), 0.742; in test [3] (first compound 0.003162 µM), 0.801. Moreover, the relative viability in test [3] (first compound 0.01 µM) amounted to 0.635; in test [3] (first compound 0.03162 µM), 0.289; in test [3] (first compound 0.1 µM), 0.246; in test [4] (first compound 0.01 µM), 0.773; in test [4] (first compound 0.03162 µM), 0.79; in test [4] (first compound 0.1 µM), 0.833. The figures for the relative viability in test [4] (first compound 0.3162 µM) and in test [4] (first compound 1 µM) were 0.763 and 0.794, respectively.
In the case of EKVX, the relative viability was 0.369 in test [1] (first compound 0.001 µM); 0.474 in test [1] (first compound 0.003162 µM); 0.427 in test [1] (first compound 0.01 µM); 0.137 in test [1] (first compound 0.1 µM); 0.443 in test [2] (first compound 0.001 µM); 0.492 in test [2] (first compound 0.003162 µM). Besides, the relative viability turned out to be 0.542 in test [2] (first compound 0.01 µM); 0.476 in test [2] (first compound 0.03162 µM); 0.169 in test [2] (first compound 0.1 µM); 0.346 in test [3] (first compound 0.001 µM); 0.432 in test [3] (first compound 0.003162 µM); 0.435 in test [3] (first compound 0.01 µM). Besides, the relative viability came out at 0.34 in test [3] (first compound 0.03162 µM); 0.281 in test [3] (first compound 0.1 µM); 0.342 in test [4] (first compound 0.01 µM); 0.367 in test [4] (first compound 0.03162 µM); 0.347 in test [4] (first compound 0.1 µM); 0.298 in test [4] (first compound 0.3162 µM). The relative viability in test [4] (first compound 1 µM) was found to be 0.374.
